Assay results reported in US5312816A, “Method of combatting osteoporosis in mammalian subjects, utilizing organic boron compounds” (priority 1993, dated 1994).

How the values were obtained:
[1] = test system: Sprague Dawley Rats; assay: Anti-inflammatory activity in Sprague Dawley rats; format: in vivo; details: Table IV; 8 mg/kg I.P.
[2] = biological target: T1, 5'-lipoxygenase (Mus musculus, UniProt P48999); assay: Mouse hepatic 5'-lipoxygenase activity; format: biochemical; details: Table VI; mouse hepatic, 60 min incubation; read-out: 5'-lipoxygenase IC50
T1 construct: Cf1 male mouse hepatic 10% homogenates; from tissue; host or cells: CF1 male mouse liver, 10% homogenate
T1 sequence (P48999 1-674): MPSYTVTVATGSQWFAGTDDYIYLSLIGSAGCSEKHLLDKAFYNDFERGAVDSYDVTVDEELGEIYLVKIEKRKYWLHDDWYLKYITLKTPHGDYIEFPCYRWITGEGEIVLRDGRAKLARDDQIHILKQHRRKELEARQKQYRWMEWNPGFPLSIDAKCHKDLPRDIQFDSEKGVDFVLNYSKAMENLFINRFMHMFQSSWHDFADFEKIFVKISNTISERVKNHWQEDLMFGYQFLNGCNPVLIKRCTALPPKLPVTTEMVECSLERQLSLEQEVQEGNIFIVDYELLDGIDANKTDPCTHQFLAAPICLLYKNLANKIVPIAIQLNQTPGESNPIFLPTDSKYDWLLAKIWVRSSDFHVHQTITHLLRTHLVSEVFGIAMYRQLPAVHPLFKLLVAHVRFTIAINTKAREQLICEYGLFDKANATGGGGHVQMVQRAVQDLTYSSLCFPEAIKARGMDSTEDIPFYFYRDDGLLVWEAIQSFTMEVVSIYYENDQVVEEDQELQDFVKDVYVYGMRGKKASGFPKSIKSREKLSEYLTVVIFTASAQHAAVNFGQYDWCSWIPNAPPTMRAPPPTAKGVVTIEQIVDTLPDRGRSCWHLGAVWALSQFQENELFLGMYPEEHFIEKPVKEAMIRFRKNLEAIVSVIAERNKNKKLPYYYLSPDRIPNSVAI
Excerpt: (§1) 1. Cf1 male mouse hepatic 10% homogenates in 0.25M sucrose+0.001MEDTA,pH 7.2.
5'-lipoxygenase Mylari, B.L., et al, J. Med.

[3] = test system: Acid phosphatase; assay: Mouse macrophage acid phosphatase activity; format: cell-based; details: Table VII; mouse macrophage cultured cells, 60 min incubation; read-out: Acid Phosphatase IC50
[4] = test system: Aryl sulphatase; assay: Mouse macrophage aryl sulphatase activity; format: cell-based; details: Table VII; mouse macrophage cultured cells, 60 min incubation; read-out: Aryl Sulphatase IC50
[5] = test system: Trypsin; assay: Mouse macrophage trypsin (BAEE) activity; format: cell-based; details: Table VIII; mouse macrophages, 60 min incubation; read-out: Trypsin BAEE IC50
[6] = test system: Elastase; assay: Mouse macrophage elastase activity; format: cell-based; details: Table VIII; mouse macrophages, 60 min incubation; read-out: Elastase IC50
[7] = test system: Prostaglandin cyclooxygenase; assay: Mouse macrophage prostaglandin cyclooxygenase activity; format: cell-based; details: Table VIII; mouse macrophages, 60 min incubation; read-out: Prostaglandin Cyclooxygenase IC50
Excerpt: 3. Mouse macrophages J774A.1 BALB/c
(§2) Prostaglandin synthetase purified beef seminal vesicle ^3 H arachidonic acid (86.2 Ci/mmol), tlc separation.

[8] = test system: Trypsin; assay: Human osteoporosis fibroblasts trypsin (BAEE) activity; format: cell-based; details: Table XI; human osteoporosis fibroblasts, 60 min incubation; read-out: Trypsin BAEE IC50
Excerpt: 1. Trypsin- N-benzoyl-L-arginine ethyl ester pH 8.0, hydrolytic product 253 nm.

[9] = biological target: T2, Cathepsin D (Homo sapiens, UniProt P07339); assay: Human osteoporosis fibroblasts cathepsin D (azo-casein) activity; format: cell-based; details: Table X; human osteoporosis fibroblasts, DMEM +10% FCS + P/S; read-out: Cathepsin D IC50
T2 construct: azocasein assay pH 5.0
Excerpt: Osteoporosis Human Fibroblast-CRL-1140, Be SA1

[10] = test system: Acid phosphatase; assay: Human osteoporosis fibroblasts acid phosphatase activity; format: cell-based; details: Table X; human osteoporosis fibroblasts; read-out: Acid Phosphatase IC50
Excerpt: (§3) 1. Acid phosphatase -beta glycerol-3-phosphate, pH 5.0, released IP 720 nm.

[11] = test system: Aryl sulphatase; assay: Human osteoporosis fibroblasts aryl sulphatase activity; format: cell-based; details: Table X; human osteoporosis fibroblasts; read-out: Aryl Sulphatase IC50
Excerpt: 3. Aryl sulphatase- p-nitrocatechol sulfate, pH
5. 8 p-nitro-catechol product 510 nm.

[12] = test system: Elastase; assay: Human osteoporosis fibroblasts elastase activity; format: cell-based; details: Table XI; human osteoporosis fibroblasts, 60 min incubation; read-out: Elastase IC50
Excerpt: (§4) 2. Elastase- N-succinyl-L-alanyl-L-alanine-p-nitroanilide, pH 8.0, p-nitro anilide 410 nm.

[13] = test system: Prostaglandin cyclooxygenase; assay: Human osteoporosis fibroblasts prostaglandin cyclooxygenase activity; format: cell-based; details: Table XI, 60 min incubation, read-out: Prostaglandin Cyclooxygense IC50
[14] = test system: Cf1 male mice; assay: Writhing reflex, 0.6% acetic acid; format: in vivo; details: Mus musculus, ip, Table IV
[15] = biological target: T3, Prostaglandin synthetase (Bos taurus, UniProt O62664); assay: Prostaglandin synthetase (cyclooxygenase), purified beef seminal vesicle; format: biochemical; details: Table IX; commercial enzyme preparation; read-out: Beef Prostaglandin Cyclooxygenase IC50
T3 construct: Prostaglandin synthetase purified beef seminal vesicle; from tissue
T3 sequence (O62664 25-600): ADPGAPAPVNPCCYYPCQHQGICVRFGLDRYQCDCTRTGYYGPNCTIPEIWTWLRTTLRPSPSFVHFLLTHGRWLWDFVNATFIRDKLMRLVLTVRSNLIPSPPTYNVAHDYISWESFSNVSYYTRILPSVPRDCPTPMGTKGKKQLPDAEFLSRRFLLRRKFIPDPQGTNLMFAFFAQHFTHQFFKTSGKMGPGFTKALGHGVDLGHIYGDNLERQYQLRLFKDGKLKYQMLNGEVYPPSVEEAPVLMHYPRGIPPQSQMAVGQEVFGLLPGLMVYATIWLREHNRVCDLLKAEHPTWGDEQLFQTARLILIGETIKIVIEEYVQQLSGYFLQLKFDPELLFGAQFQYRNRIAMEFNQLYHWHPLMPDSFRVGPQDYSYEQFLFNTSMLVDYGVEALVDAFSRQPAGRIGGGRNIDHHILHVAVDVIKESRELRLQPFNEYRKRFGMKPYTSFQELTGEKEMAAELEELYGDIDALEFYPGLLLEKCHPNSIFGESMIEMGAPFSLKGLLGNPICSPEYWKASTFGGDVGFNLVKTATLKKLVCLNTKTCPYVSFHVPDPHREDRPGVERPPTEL
Excerpt: as §2

[16] = biological target: T4, Porcine Pancreatic Elastase (Sus scrofa, UniProt P00772); assay: Porcine pancreatic elastase activity in vitro; format: biochemical; details: Table IX; commercial enzyme preparation
T4 construct: purchased; host or cells: porcine pancreas
Excerpt: as §4

[17] = test system: Hydroxyproline; assay: Serum and urine hydroxyproline levels in vivo; details: Cf1 male mice, 8 mg/kg/day I.P. 14 days, N=6
[18] = test system: Calcium; assay: Serum and urine calcium levels in vivo; details: Cf1 male mice, 8 mg/kg/day I.P. 14 days, N=6
[19] = test system: Phosphorus; assay: Serum and urine inorganic phosphorus levels in vivo; details: Cf1 male mice, 8 mg/kg/day I.P. 14 days, N=6
[20] = in vivo; details: mouse, Table 1, N=6
Procedure: Amine borane compounds (0 to 100 mg/kg) were administered to CF1 male mice as a single injection with six mice for each dosage. Mice were weighed daily and the number of deaths was recorded each day for a 14 day period. The LD50 value was determined by the procedure of S.C. Gad and C.S. Weil, "Statistics for Toxicologists" in Principles and Methods of Toxicology, A.W. Hayes, Ed., 2nd Edition, P 435-483 Raven Press, New York 1982.

[21] = test system: Cf1 male mice; assay: Anti-inflammatory screen, Winter's test, 2% carrageenan hind foot; format: in vivo; details: Table 1; drugs 8 or 10 mg/kg I.P. 2X; Indomethacin 10 mg/kg
Procedure: Anti-inflammatory Screen- Cf1 - male mice-Winter's Test 2% carrageenan S.C. plantar surface of hind foot, drugs administered @8 or 10 mg/kg I.P. 2X
Winter, C.A., et al, Proc. Soc.

[22] = test system: Cf1 male mice; assay: Writhing reflex, 0.6% acetic acid; format: in vivo; details: Table 1; Indomethacin 10 mg/kg
Procedure: Writhing reflex- Cf1 -male mice- 0.6% acetic acid I.P. drugs administered @20 mg/kg/ I.P. 20 min. later - the # of stretches/10 min.
Hendershot, L.C., et al, J.

[23] = test system: Sprague Dawley male rats; assay: Chronic adjuvant arthritis screen, Mycobacterium butyricum; format: in vivo; details: Table 1; Indomethacin 10 mg/kg
[24] = test system: Acid phosphatase; assay: Mouse hepatic lysosomal acid phosphatase activity; format: biochemical; details: 5 × 10^-6 M, N=6; 5 µM
Excerpt: as §1
(§5) Lysosomal Enzymes - free and total [triton X-100].
as §3
Acid phosphatase activity -

[25] = biological target: T5, Cathepsin D (Mus musculus, UniProt P18242); assay: Mouse hepatic lysosomal cathepsin D activity; format: biochemical; details: pH 5, read-out: Mouse Liver Cathep.
T5 construct: azocasein assay pH 5.0
Excerpt: as §1, §5
(§6) 2. Acid Cathepsin D -azocasein-pH 5.0, hydrolytic azo-peptide produce 366 nm.
Cathepsin azo casein activity -

[26] = test system: Acid phosphatase; assay: Rat PMNs acid phosphatase activity; format: cell-based; details: 5 × 10^-6 M, N=6; 5 µM
Excerpt: (§7) 2. PMNs-polymorphonuclear neutrophils-rat peritoneal cavity 0.5% oyster glycogen.
as §3

[27] = biological target: T6, Cathepsin (Rattus norvegicus, UniProt P24268); assay: Rat PMNs cathepsin activity; format: cell-based; details: pH 5; 5 × 10^-6 M, N=6; read-out: Rat PMNs Cathep.
T6 construct: azocasein assay pH 5.0
Excerpt: as §7, §6

[28] = test system: cAMP; assay: PMNs cAMP levels, Gilman's radioimmune assay; format: cell-based, rat; details: 5 × 10^-6 M, N=6
Excerpt: as §7
cAMP levels Gilman's radioimmune assay. ^3 H(G)Cyclic-3', 5'-adenosine monophosphate.

T2 sequence (P07339 65-412): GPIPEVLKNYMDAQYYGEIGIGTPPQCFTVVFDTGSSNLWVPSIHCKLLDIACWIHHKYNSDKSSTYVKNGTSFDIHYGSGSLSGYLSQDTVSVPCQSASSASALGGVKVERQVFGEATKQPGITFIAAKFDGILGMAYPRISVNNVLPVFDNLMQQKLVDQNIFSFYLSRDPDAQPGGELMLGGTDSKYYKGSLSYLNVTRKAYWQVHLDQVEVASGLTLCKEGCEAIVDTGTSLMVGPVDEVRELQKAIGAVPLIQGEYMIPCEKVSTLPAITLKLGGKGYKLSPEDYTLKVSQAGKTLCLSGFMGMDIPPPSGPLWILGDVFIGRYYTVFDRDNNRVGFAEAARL
T4 sequence (P00772 27-266): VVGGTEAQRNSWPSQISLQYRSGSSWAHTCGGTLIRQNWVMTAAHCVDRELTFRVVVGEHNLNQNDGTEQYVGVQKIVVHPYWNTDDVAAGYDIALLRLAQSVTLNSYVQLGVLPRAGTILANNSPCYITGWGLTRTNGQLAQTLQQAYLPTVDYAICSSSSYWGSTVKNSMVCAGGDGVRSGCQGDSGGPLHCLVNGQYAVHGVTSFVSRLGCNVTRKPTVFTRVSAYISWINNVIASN
T5 sequence (P18242 65-410): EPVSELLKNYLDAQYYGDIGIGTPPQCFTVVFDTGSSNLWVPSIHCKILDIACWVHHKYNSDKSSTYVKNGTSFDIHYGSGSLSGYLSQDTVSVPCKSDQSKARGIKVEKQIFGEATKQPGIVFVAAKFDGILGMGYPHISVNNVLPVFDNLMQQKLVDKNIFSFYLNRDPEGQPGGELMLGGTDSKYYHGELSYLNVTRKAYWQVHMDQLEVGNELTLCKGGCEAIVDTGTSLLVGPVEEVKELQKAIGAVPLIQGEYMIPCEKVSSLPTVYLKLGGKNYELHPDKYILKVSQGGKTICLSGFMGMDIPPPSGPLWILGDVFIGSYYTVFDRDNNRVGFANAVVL
T6 sequence (P24268 65-407): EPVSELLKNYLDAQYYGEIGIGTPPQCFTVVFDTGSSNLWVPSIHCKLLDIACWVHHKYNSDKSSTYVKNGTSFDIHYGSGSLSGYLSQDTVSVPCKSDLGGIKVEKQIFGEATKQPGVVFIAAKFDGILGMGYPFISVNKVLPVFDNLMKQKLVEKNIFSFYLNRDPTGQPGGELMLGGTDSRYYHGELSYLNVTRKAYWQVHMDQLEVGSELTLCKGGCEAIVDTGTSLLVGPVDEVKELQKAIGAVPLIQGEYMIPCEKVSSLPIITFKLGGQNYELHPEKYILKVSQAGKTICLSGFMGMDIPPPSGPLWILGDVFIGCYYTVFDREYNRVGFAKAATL

For CCNC(=O)[BH2-][NH+](C)C [Compound 9, Dimethylamine-N-ethylcarbamoylborane], the “Anti-Inflammatory Activity Sprague Dawley Rats” value [1] was 41 % Control, the IC50 [2] was 43.5 µM and the IC50 [3] was 1.12 µM. The IC50 [4] was 9.27 µM, the IC50 [5] was 2.03 µM and the IC50 [6] was 3.29 µM. The IC50 [7] was 5.19 µM, the IC50 [8] was 4.36 µM and the IC50 [9] was 1.93 µM. For the same compound, the IC50 [10] was 8.6 µM, the IC50 [11] was 7.63 µM and the IC50 [12] was 0.98 µM. The IC50 [13] was 8.05 µM and the response vs control in vivo at 8 mg/kg ([14]; 8 mg/kg I.P.) was 26.9%.
CCCCCCCCCCCCCCCCCC[N+](C)(C)[BH2-]C(=O)O [Compound 6, N,N-Dimethyloctadecylamine-carboxyborane] showed an IC50 [15] of 1.92 µM, an IC50 [16] of 27.6 µM and a Hydroxyproline serum [17] of 76.4 % Control. The Hydroxyproline urine [17] was 60.6 % Control, the Calcium serum [18] was 135.4 % Control and the Calcium urine [18] was 64.4 % Control. The Phosphorus serum [19] was 86.2 % Control, the Phosphorus urine [19] was 65.4 % Control and the response vs control in vivo at 20 mg/kg [14] was 14.1%.
Compound COc1ccc2c(c1)c(CC(=O)O)c(C)n2C(=O)c1ccc(Cl)cc1 [Indomethacin, reference compound] has an LD50 at 336 h [20] of 28 mg/kg, an Anti-inflammatory [21] of 22 % Control and a Writhing [22] of 43 % Control. For the same compound, the Anti-arthritic [23] was 27 % Control, the “Mouse Liver Acid Phosph.” value [24] was 86 + 4 % Control and the activity at 5 µM [25] was 67%. The “Rat PMNs Acid Phoph.” value [26] was 100 + 2 % Control, the activity at 5 µM [27] was 100% and the “PMNs cAMP” value [28] was 80 % Control.
